Experiments:
[1] = tested on: A-to-I RNA editing reporter (ADAR) in A375; test: A-to-I PepTile (REPTILE) screen: A-to-I editing of dsRNA hairpin reporter by NGS; assay type: cell-based, human; details: for % A-to-I editing (IFNα): IFNα 6000 U/ml for 48 hours; for % A-to-I editing (Basal): no treatment
Description: (§1) FIGS. 12A-12D. A-to-I PepTile screen. (A) Composition of A-to-I PepTile linrary screen, and schematic description of the lentiviral expression vector. (B) Experimental workflow. A375 cells were transduced at low MOI, and then treated or not with IFNα for 48 hrs. RNA was extracted and Peptide_ADARreporter RNA species were amplified and sequenced by NGS. (C) Dot plot of A-to-I PepTile library effect on A-to-I editing with or without IFNα treatment. Red line is the mean A-to-I editing of all the 8088 peptides (>100 read counts) no treatment: 25.75% IFNα: 37.6%. (D) Dot plot of A-to-I PepTile library fitness effect upon IFNα for 48 hrs.
FIGS. 17A-17F show A-to-I RNA Editing PiTile (REPTILE) screen in A375. (A) A-to-I RNA Editing PiTile (REPTILE) library design consist of fragmentation of all known ADAR1, ADAR2 interactors and all human double stranded RNA-binding protein into 40 amino acid long peptide. This library was then cloned into a lentivirus vector that also encode a DNA-encoded RNA loop reporter (A-to-I Rep) that is edited by ADAR proteins in cells at the RNA level. When the construct is expressed, the RNA loop gets edited on a single Adenosine, while the 40-mer peptide get expressed at the protein level. Then we can measure the impact of the peptide expression on the editing rate of the RNA loop reporter by sequencing (NGS and Sanger). (B) Experimental workflow of REPTILE screen in A375 cell line. Cells were transduced with the REPTILE library, and then treated for 48 hours with IFNα. Following the treatment, RNA was harvested, converted into cDNA and amplicon library containing peptide Identity (barcode) linked to the RNA loop reporter were prepared for NGS. (C) Result of the A375 REPTILE screen in the no treatment condition. Each dot represents a unique peptide that is associated with an A-to-I editing rate that was measured on the RNA loop. (D) Result of the A375 REPTILE screen in the IFNα condition. Each dot represents a unique peptide that is associated with an A-to-I editing rate that was measured on the RNA loop. Red line represent the A-to-I editing mean, Dash blue line represent 2 times the standard deviation of the % A-to-I editing across all the datasets. This cutoff was used to defined peptides hits that modulate RNA A-to-I editing. (E) Peptide A-to-I Inhibitor Hits intersection between no treatment (% A-to-I editing<15%) and IFNα (% A-to-I editing<27%) conditions. (F) Peptide A-to-I Enhancers Hits intersection between no treatment (% A-to-I editing>36%) and IFNα (% A-to-I editing>47%) conditions.
Provided herein is a screening methodology to measure the effect of small peptide on A-to-I RNA editing in situ and screen thousands of peptides in a single experiment. First, a library of peptides with the potential of impairing A-to-I editing was designed and built. ADAR enzymes edit RNA only on double-stranded RNA structures and via ADAR's double stranded RNA-Binding Domain (dsRBD). […] The A-to-I PepTile library is composed of 19 Human proteins having dsRBD and 34 known protein-protein interactors of ADAR1/2. All these proteins were tiled into 40-mer peptides every 4 amino acids (FIG. 12A). To measure A-to-I editing, a biosensor consisting of a 71 bp dsRNA hairpin structure that gets A-to-I edited at a rate of 25% in A375 melanoma cells, and ~37% upon IFNα treatment was used. This A-to-I editing reporter is fused with DNA sequence encoding for a peptide from the A-to-I PepTile library. The A-to-I PepTile plasmid pool (10304 elements) was used to produced lentiviruses and transduced A375 cells at a low multiplicity of infection (MOI) (FIG. 12B). A part of the infected cells was treated with IFNα at 6000 U/ml for 48 hours, and then bulk RNA of the basal and treated condition was harvested. RNA was then retrotranscribed into cDNA and sequenced by Next-Generation Sequencing (NGS). […]

[2] = tested on: A375 cells; test: A-to-I PepTile screen: fitness effect upon IFNα (PepTile abundance untreated vs treated); assay type: cell-based, human
Description: as §1
Provided herein is a screening methodology to measure the effect of small peptide on A-to-I RNA editing in situ and screen thousands of peptides in a single experiment. First, a library of peptides with the potential of impairing A-to-I editing was designed and built. ADAR enzymes edit RNA only on double-stranded RNA structures and via ADAR's double stranded RNA-Binding Domain (dsRBD). […] The A-to-I PepTile library is composed of 19 Human proteins having dsRBD and 34 known protein-protein interactors of ADAR1/2. All these proteins were tiled into 40-mer peptides every 4 amino acids (FIG. 12A). To measure A-to-I editing, a biosensor consisting of a 71 bp dsRNA hairpin structure that gets A-to-I edited at a rate of 25% in A375 melanoma cells, and ~37% upon IFNα treatment was used. This A-to-I editing reporter is fused with DNA sequence encoding for a peptide from the A-to-I PepTile library. The A-to-I PepTile plasmid pool (10304 elements) was used to produced lentiviruses and transduced A375 cells at a low multiplicity of infection (MOI) (FIG. 12B). A part of the infected cells was treated with IFNα at 6000 U/ml for 48 hours, and then bulk RNA of the basal and treated condition was harvested. RNA was then retrotranscribed into cDNA and sequenced by Next-Generation Sequencing (NGS). With the sequencing data, the A-to-I editing percentage of the RNA reporter for each PepTile is calculated since both elements are encoded on the same transcript. Moreover, with this screen one can also measure the abundance of the PepTiles between the untreated and treated conditions and determine Fitness score associated to every PepTile. To ensure a robust and more accurate A-to-I editing % estimation a cut-off of 100 read counts was set for each PepTile. […] SEQ ID NOs: 2125-2147 are A-to-I peptide inhibitors and SEQ ID NOs: 2148-2210 are A-to-I activators. In addition, 117 PepTiles were identified that either synergize (SEQ ID NOs: 2211-2243) or protect (SEQ ID NOs: 2244-2327) to IFNα-induced cell death (FIG. 12D and Table 5). These PepTiles are potential new therapeutic agents that can modulate the Interferon pathway. They may be beneficial in treating inflammatory conditions and may also enhance the effectiveness of cancer immunotherapy through synergistic effects.

[3] = IFNα 6000 U/ml for 48 hours vs untreated
[4] = A375, PepTile abundance upon IFNα treatment, negative = synthetic lethal, positive = protector

Sequence | % A-to-I editing (IFNα) [1] | % A-to-I editing (Basal) [1] | Fitness Score IFNα [2, 3] | Fitness Score IFNα [2, 4]
MAGPLGPGDAVRRVLECVATGTLLTDGPGLQDPCERDQTDA [ZFR2_207] | 51.31% | 45.30% | 1.51 | 
MAPVAAHTVTAAYAPAAATVAVARPAPVAVAAAATAAAYGG [ZFR_18] | 49.47% | 37.25% | 1.04 | 
MASLQISPQPRPWRPLPAQAQSAWGPAPAPATYRAEGGWPQ [ADAD2_6] | 48.57% | 40.89% | 3.12 | 3.12
MAVEITGAGPGASSVCNSAPGSGPSSPNSSHSTIAENGFTG [HDAC5_75] | 55.71% | 40.79% | 0.76 | 
MAVRRVLECVATGTLLTDGPGLQDPCERDQTDALEPMTLQE [ZFR2_209] | 50.31% | 39.66% | 0.22 | 
MCLSSHFQELSIYQDQEQRILKFLEELGEGKATTAHDLSGK [ADAR_32] | 48.60% | 38.66% | -0.47 | 
MCSFNDPNAKEMHLKGRRHRLQYKKKVNPDLQVEVKPSIRA [ZFR_148] | 48.58% | 37.77% | -1.00 | 
MCYYVFGDLSGGCESYLVNLSLNDNDGSSGASDQDTLAPLP [DVL2_126] | 54.28% | 43.60% | 0.54 | 
MDTLDPELFVECTECGRKMHQICVLHHEIIWPAGFVCDGCL [EP300_310] | 26.86% | 14.29% | -1.83 | 
MDTVISLLTGLSDSQVRAFRHTSTLAAMKLMTALVNVALNL [STAG1_51] | 80.32% | 74.10% | -0.15 | 
MECMHKLGNSCEFRLLSKEGPAHEPKFQYCVAVGAQTFPSV [ADAR_156] | 20.83% | 13.60% | 0.35 | 
MEPAKGGEKLQIKKTVSFHLYISTAPCGDGALFDKSCSDRA [ADAR_236] | 55.48% | 39.57% | -1.07 | 
MESTIVEPKQNENRLSDTKPNDNKQNNGRSETTKSRPETPK [NIPBL_167] | 52.90% | 39.35% | 1.11 | 
METVSSNSSNNTGNSTTETSSTLEVRTQGPILTASGKNPVM [STRBP_120] | 22.73% | 10.91% | 0.07 | 
MFKKRAVEITGAGPGASSVCNSAPGSGPSSPNSSHSTIAEN [HDAC5_74] | 55.72% | 38.94% | 0.29 | 
MFPAVCAHSKKQGKQEAADAALRVLIGENEKAERMGFTEVT [ADAR_193] | 22.77% | 11.47% | 0.57 | 
MFSSRGINFRTRHLMQDLRMLMPHSKADTKMDRKDKLFVIN [BRIX1_17] | 47.02% | 38.66% | 1.21 | 
MGELSSADEKRYRALKRTAERELLMNADVICCTCVGAGDPR [UPF1_147] | 24.68% | 13.30% | -0.63 | 
MGFRGNSGGDYRGPSGGYRGSGGFQRGGGRGAYGTGYFGQG [DHX9_307] | 47.59% | 40.04% | 1.50 | 
MGLSPSIDTLDHIRALDRLQEVPHEGPMCDLLWSDPDDRGG [PPP2CB_43] | 62.33% | 46.04% | -0.38 | 
MGPGDAVRRVLECVATGTLLTDGPGLQDPCERDQTDALEPM [ZFR2_208] | 51.37% | 37.66% | 0.67 | 
MGRRSSGGGRYRNRSPSDSDMEDYSPPPSLSEVARKMKKKE [NIPBL_285] | 47.59% | 42.29% | 1.59 | 
MIIYDEYMMDTVISLLTGLSDSQVRAFRHTSTLAAMKLMTA [STAG1_49] | 48.18% | 44.91% | 0.55 | 
MIQDPAQAEAYTIYWLVAALAPLVAAPPRPSQGRLAGREWS [UBE2I_32] | 47.26% | 44.43% | -0.02 | 
MKECVDHLSRDEDEEKLVASLWGAERCLRVLESVTVHNPEN [WAPAL_208] | 50.33% | 50.48% | 1.55 | 
MKEHMDAINHDTKELEKMTNRQGMLLKKKEECMKKIRELGS [SMC3_228] | 23.22% | 13.27% | -3.54 | -3.54
MKKNIAAERKEAKQEKEEADRYQRLKDEVVRAQVQLQLFKL [SMC1A_48] | 26.12% | 11.19% | 1.61 | 
MKTPIQVLHEYGMKTKNIPVYECERSDVQIHVPTFTFRVTV [PRKRA_9] | 48.95% | 43.02% | -0.21 | 
MKVPAVPVQWGNCGDTGTRSAGPLRRNYNFIAAVVEKVAPS [HTRA4_36] | 25.56% | 12.55% | 0.18 | 
MLANFGPRINDIKRIIQSREREMKDLKEKMNQVEDEVFEEF [SMC1A_186] | 56.93% | 55.39% | 0.69 | 

Source: patent publication US20260285924A1, “PEPTIDE THERAPEUTICS” (priority 2023, published 2026)
